These results are taken from patent publication US11945796B2, “Substituted pyridine derivatives as SARM1 inhibitors” (Nura Bio, Inc., priority 2020, dated 2024).

Where two headings read alike, the source gives them in different places.

As a reminder, the IC50 is the concentration that gives 50% inhibition. A lower IC50 goes with greater potency. A word on the inhibition: it is the percentage by which the read-out fell short of the control.

The experiment addresses T1, human SARM1(50-724) (Homo sapiens, UniProt Q6SZW1).
T1 construct: 40 nM human SARM1(50-724)
T1 sequence (Q6SZW1 50-724): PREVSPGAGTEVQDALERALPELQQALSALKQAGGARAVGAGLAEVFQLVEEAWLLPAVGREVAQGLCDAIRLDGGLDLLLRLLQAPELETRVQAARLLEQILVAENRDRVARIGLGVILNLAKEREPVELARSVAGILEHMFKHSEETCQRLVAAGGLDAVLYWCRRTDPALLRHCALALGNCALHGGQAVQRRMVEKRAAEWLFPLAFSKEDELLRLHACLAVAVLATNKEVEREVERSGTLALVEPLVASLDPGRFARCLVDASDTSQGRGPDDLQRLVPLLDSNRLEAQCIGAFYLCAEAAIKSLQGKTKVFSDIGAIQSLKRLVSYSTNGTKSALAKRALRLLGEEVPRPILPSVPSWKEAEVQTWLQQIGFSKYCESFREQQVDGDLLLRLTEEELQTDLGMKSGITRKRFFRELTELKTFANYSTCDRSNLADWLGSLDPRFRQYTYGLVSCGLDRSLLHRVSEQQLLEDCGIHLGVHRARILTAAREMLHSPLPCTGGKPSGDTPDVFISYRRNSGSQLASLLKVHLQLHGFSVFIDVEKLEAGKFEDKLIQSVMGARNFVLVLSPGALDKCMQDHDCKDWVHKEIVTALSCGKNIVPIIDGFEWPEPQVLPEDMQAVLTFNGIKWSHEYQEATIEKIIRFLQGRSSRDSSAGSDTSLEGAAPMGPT
Briefly: SARM1 NADase biochemical assay (HPLC peak areas of NAD and NAM). Particulars: for IC50: dose-response, 1:3 serial dilution from 100 μM, 40 nM SARM1, 0.3 mM NMN, 20 μM NAD, 60 min rt. As to the method:
The reaction was incubated at room temperature for 60 minutes and quenched with 20 μL of 0.4% formic acid. […] Total run time for each sample was 4 minutes. […] Samples were run at a flow rate of 0.8 mL/min at 55° C. Peak areas of NAD and NAM were determined using OpenLAB CDS (Chem Station edition) software. For dose-response, the compound was diluted serially 1:3 in DMSO and added to the reaction starting at a final compound concentration of 100 μM in 1% DMSO.

The mark [1] stands for this setting: 50 μM compound, NAD peak area, read-out: Avg NAD % inhibition at 50 μM.
[2] abbreviates: 50 μM compound, NAM peak area, read-out: Avg NAM % inhibition at 50 μM.
[3] abbreviates: read-out: Avg NAD % inhibition at 50 μM.
The mark [4] stands for this setting: read-out: Avg NAM % inhibition at 50 μM.

On to `N#CCc1ccn(Cc2ccncc2)n1` [Example 30, 2-(1-(Pyridin-4-ylmethyl)-1H-pyrazol-3-yl)acetonitrile], for which the IC50 is 1 to 10 µM. As for `O=S(=O)(Nc1ccn(Cc2ccncc2)n1)C(F)(F)F` [Example 88, 1,1,1-Trifluoro-N-(1-(pyridin-4-ylmethyl)-1H-pyrazol-3-yl)methanesulfonamide], the inhibition at 50 µM lay in the range of 0 to 50% under setting [1] and 0 to 50% under setting [2]. For `O=C(Nc1ccn(Cc2ccncc2)n1)c1cccnc1` [Example 62, N-(1-(Pyridin-4-ylmethyl)-1H-pyrazol-3-yl)nicotinamide], the inhibition at 50 µM under setting [3] was in the range of 0 to 50% and the inhibition at 50 µM under setting [4] was in the range of 0 to 50%.

Molecule `CC(c1ccncc1)n1ccc(NCC(F)F)n1` (racemic) [Example 101, (rac)-N-(2,2-Difluoroethyl)-1-(1-(pyridin-4-yl)ethyl)-1H-pyrazol-3-amine] yielded an IC50 of under 1 µM. For the molecule `O=C(Nc1ccn(Cc2ccncc2)n1)c1ccccc1` [Example 69, N-(1-(Pyridin-4-ylmethyl)-1H-pyrazol-3-yl)benzamide], the inhibition at 50 µM runs as follows: under setting [3], 51 to 100%; under setting [4], 51 to 100%. As for `Cc1ccccc1C(=O)Nc1ccn(Cc2ccncc2)n1` [Example 48, 2-Methyl-N-(1-(pyridin-4-ylmethyl)-1H-pyrazol-3-yl)benzamide], the inhibition at 50 µM runs as follows: under setting [1], 0 to 50%; under setting [2], 0 to 50%. For the molecule `FC(F)CNc1ccn(Cc2ccncc2)n1` [Example 3, N-(2,2-Difluoroethyl)-1-(pyridin-4-ylmethyl)-1H-pyrazol-3-amine], the 50% inhibitory concentration (IC50) was in the range of 1 to 10 µM. Regarding `O=S(=O)(Nc1ccn(Cc2ccncc2)n1)c1ccccc1` [Example 70, N-(1-(Pyridin-4-ylmethyl)-1H-pyrazol-3-yl)benzenesulfonamide], the inhibition at 50 µM reads like this: under setting [3], 51 to 100%; under setting [4], 51 to 100%. With `O=C(Nc1ccn(Cc2ccncc2)n1)c1ccc(O)cc1` [Example 45, 4-Hydroxy-N-(1-(pyridin-4-ylmethyl)-1H-pyrazol-3-yl)benzamide], the inhibition at 50 µM under setting [1] fell in the range of 0 to 50% and the inhibition at 50 µM under setting [2] was 0 to 50%. Regarding `c1cc(Cn2ccc(NC3CC3)n2)ccn1` [Example 98, N-Cyclopropyl-1-(pyridin-4-ylmethyl)-1H-pyrazol-3-amine], the inhibition at 50 µM by setting is: under setting [1], 0 to 50%; under setting [2], 0 to 50%.

In turn, “(R)-4-(1-(1-(2,2-Difluoroethyl)-1H-pyrazol-3-yl)ethyl)pyridine and (S)-4-(1-(1-(2,2-Difluoroethyl)-1H-pyrazol-3-yl)ethyl)pyridine [Example 111]” displayed an IC50 of 1 to 10 µM. Regarding `Cc1cc(Cc2ccncc2)nn1CC(F)(F)F` [Example 83, 4-((5-Methyl-1-(2,2,2-trifluoroethyl)-1H-pyrazol-3-yl)methyl)pyridine], the IC50 is 10 to 100 µM. With `CC(c1ccncc1)c1ccn(CC(F)F)n1` (racemic) [Example 18, (rac)-4-(1-(1-(2,2-Difluoroethyl)-1H-pyrazol-3-yl)ethyl)pyridine], the IC50 fell in the range of 1 to 10 µM.

Turning to `Cc1cnccc1Cn1ccc(NCC(F)(F)F)n1` [Example 84, 1-((3-Methylpyridin-4-yl)methyl)-N-(2,2,2-trifluoroethyl)-1H-pyrazol-3-amine], the IC50 was 10 to 100 µM. In turn, `CC(c1ccncc1)c1nn(CC(F)(F)F)cc1F` (racemic) [Example 22, (rac)-4-(1-(4-Fluoro-1-(2,2,2-trifluoroethyl)-1H-pyrazol-3-yl)ethyl)pyridine] registered an IC50 of 1 to 10 µM. Molecule `N#CCNc1ccn(Cc2ccncc2)n1` [Example 17, 2-((1-(Pyridin-4-ylmethyl)-1H-pyrazol-3-yl)amino)acetonitrile] came in with an IC50 of 1 to 10 µM. Still for that read-out and setting: under `FC(F)(F)Cn1ccc(C(Cl)c2ccncc2)n1` (racemic) [Example 81, (rac)-4-(Chloro(1-(2,2,2-trifluoroethyl)-1H-pyrazol-3-yl)methyl)pyridine] stands 10 to 100 µM.

As to `Cc1ccc(C(=O)Nc2ccn(Cc3ccncc3)n2)cc1` [Example 50, 4-Methyl-N-(1-(pyridin-4-ylmethyl)-1H-pyrazol-3-yl)benzamide], the inhibition at 50 µM under setting [1] lay in the range of 0 to 50% and the inhibition at 50 µM under setting [2] is 0 to 50%. With `O=C(Nc1ccn(Cc2ccncc2)n1)c1ccc(Cl)cc1` [Example 55, 4-Chloro-N-(1-(pyridin-4-ylmethyl)-1H-pyrazol-3-yl)benzamide], the inhibition at 50 µM under setting [3] fell in the range of 51 to 100% and the inhibition at 50 µM under setting [4] is 51 to 100%.

Molecule `Cc1cnccc1C(C)n1ccc(NCC(F)(F)F)n1` (racemic) [Example 14, (rac)-1-(1-(3-Methylpyridin-4-yl)ethyl)-N-(2,2,2-trifluoroethyl)-1H-pyrazol-3-amine] gave an IC50 of 1 to 10 µM. Take `COc1ccccc1C(=O)Nc1ccn(Cc2ccncc2)n1` [Example 44, 2-Methoxy-N-(1-(pyridin-4-ylmethyl)-1H-pyrazol-3-yl)benzamide]: the inhibition at 50 µM under setting [3] fell in the range of 0 to 50% and the inhibition at 50 µM under setting [4] was 0 to 50%. `O=C(Nc1ccn(Cc2ccncc2)n1)c1csc(Cl)c1` [Example 66, 5-Chloro-N-(1-(pyridin-4-ylmethyl)-1H-pyrazol-3-yl)thiophene-3-carboxamide]: the IC50 is 1 to 10 µM. As to `Cc1cnccc1Cn1ccc(CC(F)(F)F)n1` [Example 109, 3-Methyl-4-{[3-(2,2,2-trifluoroethyl)-1H-pyrazol-1-yl]methyl}pyridine], the IC50 lay in the range of 1 to 10 µM. Regarding `COc1ccc(S(=O)(=O)N(C)c2ccn(Cc3ccncc3)n2)cc1` [Example 75, 4-Methoxy-N-methyl-N-(1-(pyridin-4-ylmethyl)-1H-pyrazol-3-yl)benzenesulfonamide], the inhibition at 50 µM under setting [3] was 0 to 50% and the inhibition at 50 µM under setting [4] is 0 to 50%. Take `CC(c1ccncc1)c1ccn(CC#N)n1` (single isomer, unassigned) [Example 12b]: the IC50 was under 1 µM. `C[C@H](c1ccn(CC(F)(F)F)n1)c1ccncc1Cl` (single isomer, unassigned) [Example 113a] came in with an IC50 of 1 to 10 µM. The molecule `c1cc(Cn2ccc(Nc3nccs3)n2)ccn1` [Example 4, N-(1-(Pyridin-4-ylmethyl)-1H-pyrazol-3-yl)thiazol-2-amine] displayed an IC50 of 1 to 10 µM. On to `COc1ccc(S(=O)(=O)Nc2ccn(Cc3ccncc3)n2)cc1` [Example 74, 4-Methoxy-N-(1-(pyridin-4-ylmethyl)-1H-pyrazol-3-yl)benzenesulfonamide], for which the IC50 lay within 1 to 10 µM. With `FCCNc1ccn(Cc2ccncc2)n1` [Example 96, N-(2-Fluoroethyl)-1-(pyridin-4-ylmethyl)-1H-pyrazol-3-amine], the inhibition at 50 µM under setting [3] was in the range of 51 to 100% and the inhibition at 50 µM under setting [4] was 51 to 100%. On to `c1cc(Cn2ccc(NC3CCC3)n2)ccn1` [Example 97, N-Cyclobutyl-1-(pyridin-4-ylmethyl)-1H-pyrazol-3-amine], for which the inhibition at 50 µM fell in the range of 0 to 50% under setting [1] and 0 to 50% under setting [2]. With `O=C(Nc1ccn(Cc2ccncc2)n1)c1ccccc1C(F)(F)F` [Example 56, N-(1-(Pyridin-4-ylmethyl)-1H-pyrazol-3-yl)-2-(trifluoromethyl)benzamide], the inhibition at 50 µM runs as follows: under setting [1], 0 to 50%; under setting [2], 0 to 50%. In turn, `FC(F)(F)CNc1ccn(Cc2ccncc2)n1` [Example 26, 1-(Pyridin-4-ylmethyl)-N-(2,2,2-trifluoroethyl)-1H-pyrazol-3-amine] had a 50% inhibitory concentration (IC50) of 10 to 100 µM. Moreover, the inhibition at 50 µM under setting [1] fell in the range of 0 to 50%. Also, the inhibition at 50 µM under setting [2] lay in the range of 0 to 50%. For the molecule `CN(c1ccn(Cc2ccncc2)n1)S(=O)(=O)c1cccc(F)c1` [Example 77, 3-Fluoro-N-methyl-N-(1-(pyridin-4-ylmethyl)-1H-pyrazol-3-yl)benzenesulfonamide], the inhibition at 50 µM under setting [3] fell in the range of 0 to 50% and the inhibition at 50 µM under setting [4] lay in the range of 0 to 50%. “(S)-4-(1-(1-(2,2,2-Trifluoroethyl)-1H-pyrazol-3-yl)ethyl)pyridine and (R)-4-(1-(1-(2,2,2-Trifluoroethyl)-1H-pyrazol-3-yl)ethyl)pyridine [Example 13a]”: the IC50 was under 1 µM. `O=C(Nc1ccn(Cc2ccncc2)n1)c1cc(Br)cs1` [Example 65, 4-Bromo-N-(1-(pyridin-4-ylmethyl)-1H-pyrazol-3-yl)thiophene-2-carboxamide] came in with an IC50 of 10 to 100 µM. Also, under setting [1], the inhibition at 50 µM was 51 to 100%. In addition, the inhibition at 50 µM under setting [2] lay in the range of 51 to 100%. Take `[2H]C([2H])([2H])C(c1ccncc1)c1ccn(CC(F)F)n1` (racemic) [Example 25, (rac)-4-(1-(1-(2,2-Difluoroethyl)-1H-pyrazol-3-yl)ethyl-2,2,2-d3)pyridine]: the IC50 is 1 to 10 µM.
